The values that follow come from US20030129222A1, “Liposomal imexon” (priority 2000, published 2003).

In general, IC50 refers to the concentration that gives 50% inhibition.

One data set has as its system L1210 leukemia, Mdr. Kind of data set: Cytotoxicity in tumor cell culture, MTT assay. It counts as cell-based, murine. The note with it: MTT assay, multidrug-resistant; read-out: IC50 against human mouse tumors, L1210 leukemia Mdr. An excerpt:
(§1) Relative potencies of the N-substituted 2-cyanoaziridine-1-carboxamides in a panel of tumor cell cultures are compared in Table 3. This panel includes the following lines of human tumor cells: sensitive and imexon-resistant lines of multiple myeloma (Matsuoka et al., 1967); ovarian carcinoma resistant to standard drugs (Hamilton et al., 1984); melanoma with a slow growth fraction (Girard et al., 1973); breast carcinoma including sensitive, doxorubicin-resistant (P-glycoprotein-positive) (Taylor et al., 1991), and mitoxantrone-resistant (P-glycoprotein-negative) (Futscher et al., 1994) lines; sensitive and multidrug-resistant colon carcinoma (Noguchi et al., 1979; Dalton et al., 1988); and multidrug-resistant lung carcinoma (P-glycoprotein-negative) (Girard et al., 1973). It also has sensitive (Goldin et al., 1961) and multidrug-resistant (P-glycoprotein-positive) (Salmon and Hersh, 1994) murine L1210 leukemia cells.

For a further data set, the system named is L1210 leukemia, Sens. Nature of the data set: Cytotoxicity in tumor cell culture, MTT assay. It counts as cell-based, murine. The note with it: MTT assay; read-out: IC50 against human mouse tumors, L1210 leukemia Sens.
From the text: as §1
On the technique in general: Tetrazolium dyes change colour on reduction, which living cells bring about.

For data set [1], the system named is 8226 myeloma, Res (imexon-resistant). Nature of the data set: Cytotoxicity in tumor cell culture, SRB assay. It is filed as cell-based. The following applies: line made resistant to imexon; read-out: IC50 against human mouse tumors, 8226 myeloma Res.
From the text: as §1
In general terms: Sulforhodamine B stains cellular protein and so reports cell mass.

Another data set concerns WiDr colon, Sens. Kind of data set: Cytotoxicity in tumor cell culture, SRB assay. It is filed as cell-based. The following applies: read-out: IC50 against human mouse tumors, WiDr colon Sens.
From the text: as §1

A further data set concerns WiDr colon, res. Nature of the data set: Cytotoxicity in tumor cell culture, SRB assay. It is filed as cell-based. The following applies: multidrug-resistant; read-out: IC50 against human mouse tumors, WiDr colon res.
From the text: as §1

Data set [2] deals with MCF7 breast, Dox (doxorubicin-resistant). Kind of data set: Cytotoxicity in tumor cell culture, SRB assay. The note with it: doxorubicin-resistant; read-out: IC50 against human mouse tumors, MCF7 breast Dox. It is filed as cell-based, human.
From the text: as §1

For data set [3], the system named is MCF7 breast, mitox (mitoxantrone-resistant). Kind of data set: Cytotoxicity in tumor cell culture, SRB assay. It is filed as cell-based, human. The following applies: mitoxantrone-resistant; read-out: IC50 against human mouse tumors, MCF7 breast mitox.
From the text: as §1

The next data set deals with A-549 lung. Kind of data set: Cytotoxicity in tumor cell culture, SRB assay. The note with it: read-out: IC50 against human mouse tumors, A-549 lung. It counts as cell-based, human.
From the text: as §1

Data set [4] has as its system 8226 myeloma, Sens (drug-sensitive). Nature of the data set: Cytotoxicity in tumor cell culture, SRB assay. It is filed as cell-based, human.
From the text: as §1

The next data set deals with OVCAR3 ovarian. Nature of the data set: Cytotoxicity in tumor cell culture, SRB assay. It counts as cell-based, human. The note with it: read-out: IC50 against human mouse tumors, OVCAR3 ovarian.
From the text: as §1

The next data set deals with A375 melan. Nature of the data set: Cytotoxicity in tumor cell culture, SRB assay. It is filed as cell-based, human. The following applies: read-out: IC50 against human mouse tumors, A375 melan.
From the text: as §1

Another data set has as its system MCF7 breast, Sens. Kind of data set: Cytotoxicity in tumor cell culture, SRB assay. It counts as cell-based, human. The following applies: read-out: IC50 against human mouse tumors, MCF7 breast Sens.
From the text: as §1

For data set [5] the following is noted: substituent constant, from Hansch and Leo or calculated using Clog P software; cited from earlier work.
Setting [6] is: against sensitive myeloma, values repeated from Table 3 (μM there), read-out: IC50.
Where [7] appears, read: drug-sensitive line, read-out: IC50 against human mouse tumors, 8226 myeloma Sens.

Where two headings read alike, the source gives them in different places. Bounds are passed on as bounds.

Consider `CCCCNC(=O)N1CC1C#N` (centres unmarked) [Compound 8, 2-Cyanoaziridine-1-(N-butyl) carboxamide], for which the IC50 in the data set with L1210 leukemia, Mdr worked out at 12 µM; with L1210 leukemia, Sens, 12 µM; in data set [1] it was 17 µM; in the data set on WiDr colon, Sens, 14 µM; with WiDr colon, res, 18 µM; in [2], 6.7 µM. Besides, the half-maximal inhibitory concentration (IC50) in data set [3] is > 12 µM; in the data set on A-549 lung, 18 µM; in data set [4] (setting [6]) it was 17 µM; in data set [4] (setting [7]), 17 µM; with OVCAR3 ovarian, 12 µM; in the data set on A375 melan it was 15 µM. Moreover, the half-inhibitory concentration (IC50) in the data set with MCF7 breast, Sens was > 12 µM. Also, in data set [4] (against sensitive myeloma), the “Log(1/C)” value is 4.77. In addition, the π in data set [5] is on record as 2.00.
Take `N#CC1CN1C(=O)Nc1ccc(S(N)(=O)=O)cc1` (centres unmarked) [Compound 22, 2-Cyanoaziridine-1-[N-(4-sulfamylphenyl)]carboxamide]: the IC50 is > 38 µM with L1210 leukemia, Mdr; > 38 µM in the data set with L1210 leukemia, Sens; > 38 µM in [1]; > 38 µM in the data set on WiDr colon, Sens; > 38 µM in the data set with WiDr colon, res; > 15 µM in data set [2]. Besides, the IC50 in data set [3] is > 15 µM; in the data set on A-549 lung, > 38 µM; in data set [4] (setting [7]) it was > 38 µM; in the data set with OVCAR3 ovarian it was 188 µM; in the data set with A375 melan, 188 µM; in the data set on MCF7 breast, Sens, > 15 µM.
Turning to `N#CC1CN1C(=O)Nc1ccc(C(F)(F)F)cc1` (centres unmarked) [Compound 15, 2-Cyanoaziridine-1-[N-(4-trifluorophenyl)]carboxamide], the IC50 in the data set with L1210 leukemia, Mdr came out at 7.1 µM; with L1210 leukemia, Sens it was 7.8 µM; in [1], 7.8 µM; in the data set with WiDr colon, Sens, 1.3 µM; in the data set with WiDr colon, res it was 5.8 µM; in data set [2] it was 1.4 µM. Moreover, the IC50 worked out at 1.3 µM in data set [3]; 4.3 µM in the data set with A-549 lung; 8.2 µM in data set [4] (setting [6]); 8.2 µM in data set [4] (setting [7]); 5.9 µM with OVCAR3 ovarian; 11.8 µM in the data set with A375 melan. Moreover, the IC50 in the data set on MCF7 breast, Sens turned out to be 1.5 µM. Moreover, the “Log(1/C)” value in [4] (against sensitive myeloma) worked out at 5.09. In addition, the π in [5] is listed as 2.88.
For `N#CC1CN1C(=O)Nc1cccc2ccccc12` (centres unmarked) [Compound 23, 2-Cyanoaziridine-1-[N-(1-naphthyl)]carboxamide], the IC50 is 2.5 µM with L1210 leukemia, Mdr; 7.2 µM with L1210 leukemia, Sens; 8.9 µM in data set [1]; 2.4 µM in the data set on WiDr colon, Sens; 2.5 µM in the data set on WiDr colon, res; 1.7 µM in data set [2]. The half-inhibitory concentration (IC50) in [3] stood at 2 µM; with A-549 lung, 2.5 µM; in data set [4] (setting [6]), 8 µM; in data set [4] (setting [7]), 8 µM; in the data set on OVCAR3 ovarian, 5.9 µM; with A375 melan, 4.2 µM. Also, in the data set with MCF7 breast, Sens, the IC50 was 2 µM. The “Log(1/C)” value in data set [4] (against sensitive myeloma) is 5.10. In addition, in data set [5], the π is 3.32.
For the compound `N#CC1CN1C(=O)Nc1ccc([N+](=O)[O-])cc1` (centres unmarked) [Compound 16, 2-Cyanoaziridine-1-[N-(4-nitrophenyl)]carboxamide], the IC50 in the data set with L1210 leukemia, Mdr is 2.6 µM; with L1210 leukemia, Sens, 2.6 µM; in data set [1], 8.6 µM; in the data set on WiDr colon, Sens it was 4.3 µM; in the data set on WiDr colon, res, 3.7 µM; in [2] it was 3 µM. In addition, the half-maximal inhibitory concentration (IC50) in data set [3] was 3 µM; with A-549 lung it was 3.9 µM; in [4] (setting [6]), 9.1 µM; in data set [4] (setting [7]), 9.1 µM; in the data set with OVCAR3 ovarian it was 6.5 µM; in the data set on A375 melan it was 3.9 µM. Also, the IC50 in the data set with MCF7 breast, Sens amounted to 3 µM. Further, the “Log(1/C)” value in [4] (against sensitive myeloma) was 5.04. The π in [5] is 1.72.
In the case of `N#CC1CN1C(=O)Nc1ccc(Cl)c(Cl)c1` (centres unmarked) [Compound 18, 2-Cyanoaziridine-1-[N-(3,4-dichlorophenyl)]carboxamide], the IC50 in the data set with L1210 leukemia, Mdr came to 7.2 µM; with L1210 leukemia, Sens, 2.6 µM; in [1], 2.7 µM; in the data set with WiDr colon, Sens it was 7 µM; in the data set on WiDr colon, res, 14 µM; in [2], 7.2 µM. Moreover, the IC50 in data set [3] was 4.4 µM; with A-549 lung, 7.5 µM; in data set [4] (setting [6]) it was 1.1 µM; in [4] (setting [7]), 1.1 µM; in the data set with OVCAR3 ovarian it was 5.6 µM; in the data set with A375 melan, 5.9 µM. Besides, the concentration for half-maximal inhibition (IC50) in the data set on MCF7 breast, Sens turned out to be 4.6 µM. In data set [4] (against sensitive myeloma), the “Log(1/C)” value was determined as 5.96. Further, in data set [5], the π was 3.42.
`CCNC(=O)N1CC1C#N` (centres unmarked) [Compound 7, 2-Cyanoaziridine-1-(N-ethyl) carboxamide]: the IC50 turned out to be 14 µM in the data set on L1210 leukemia, Mdr; 14 µM in the data set on L1210 leukemia, Sens; 26 µM in data set [1]; 4 µM in the data set with WiDr colon, Sens; 7 µM in the data set on WiDr colon, res; 20 µM in data set [2]. For the same compound, the IC50 was 10 µM in data set [3]; 18 µM in the data set with A-549 lung; 22 µM in data set [4] (setting [6]); 22 µM in data set [4] (setting [7]); 14 µM in the data set on OVCAR3 ovarian; 36 µM in the data set on A375 melan. For the same compound, in the data set on MCF7 breast, Sens, the IC50 came to 29 µM. Also, the “Log(1/C)” value in data set [4] (against sensitive myeloma) was 4.66. Besides, in [5], the π is on record as 1.02.
As to `N#CC1CN1C(=O)Nc1ccc(Cl)cc1Cl` (centres unmarked) [Compound 17, 2-Cyanoaziridine-1-[N-(2,4-dichlorophenyl)]carboxamide], the concentration for half-maximal inhibition (IC50) is 33 µM in the data set with L1210 leukemia, Mdr; 207 µM with L1210 leukemia, Sens; 9.4 µM in [1]; 2.2 µM in the data set with WiDr colon, Sens; 1.9 µM with WiDr colon, res; 1.1 µM in data set [2]. Further, the half-maximal inhibitory concentration (IC50) was 0.35 µM in data set [3]; 2.5 µM with A-549 lung; 4.7 µM in data set [4] (setting [6]); 4.7 µM in data set [4] (setting [7]); 35 µM in the data set on OVCAR3 ovarian; > 39 µM in the data set on A375 melan. For the same compound, in the data set with MCF7 breast, Sens, the half-inhibitory concentration (IC50) came to 0.9 µM. The “Log(1/C)” value in [4] (against sensitive myeloma) is listed as 5.33. Further, the π in data set [5] is listed as 3.42.
As for `CCOC(=O)CNC(=O)N1CC1C#N` (centres unmarked) [Compound 12], the IC50 in the data set with L1210 leukemia, Mdr was 13 µM; with L1210 leukemia, Sens it was 13 µM; in data set [1], 30 µM; in the data set with WiDr colon, Sens, 31 µM; with WiDr colon, res, 33 µM; in data set [2], 17 µM. The IC50 worked out at 11 µM in [3]; 24 µM in the data set on A-549 lung; 25 µM in data set [4] (setting [6]); 25 µM in [4] (setting [7]); 51 µM with A375 melan; 15 µM in the data set with MCF7 breast, Sens. Also, the “Log(1/C)” value in data set [4] (against sensitive myeloma) was found to be 4.60. In data set [5], the π is 1.01.
Consider `CC(=O)c1cccc(NC(=O)N2CC2C#N)c1` (centres unmarked) [Compound 20, 2-Cyanoaziridine-1-[N-(3-acetylphenyl)]carboxamide], for which the IC50 with L1210 leukemia, Mdr is > 39 µM; in the data set with L1210 leukemia, Sens, > 39 µM; in [1], > 39 µM; in the data set on WiDr colon, Sens it was 40 µM; in the data set with WiDr colon, res, > 41 µM; in data set [2], > 16 µM. Moreover, the IC50 is > 16 µM in data set [3]; > 41 µM with A-549 lung; > 39 µM in data set [4] (setting [7]); > 39 µM in the data set on OVCAR3 ovarian; > 39 µM with A375 melan; > 16 µM in the data set on MCF7 breast, Sens.
Turning to `CCOC(=O)c1ccc(NC(=O)N2CC2C#N)cc1` (centres unmarked) [Compound 19, 2-Cyanoaziridine-1-[N-(4-ethoxycarbonylphenyl)]carboxamide], the half-maximal inhibitory concentration (IC50) with L1210 leukemia, Mdr was 9.7 µM; in the data set on L1210 leukemia, Sens, 9.7 µM; in data set [1] it was 3 µM; with WiDr colon, Sens, 2.5 µM; in the data set with WiDr colon, res, 4.2 µM; in data set [2] it was 2.1 µM. Further, the IC50 worked out at 3.3 µM in data set [3]; 2.9 µM in the data set with A-549 lung; 3 µM in [4] (setting [7]); 7.7 µM in the data set with OVCAR3 ovarian; 5.8 µM with A375 melan; 2.3 µM in the data set on MCF7 breast, Sens.
